Experimental data: patent publication US20240293379A1, “THERAPEUTIC AGENT FOR CANCER OF PATIENT WITH DECREASE IN RB1 FUNCTION USING MYT1 INHIBITOR AND CHEMOTHERAPEUTIC AGENT IN COMBINATION, AND TREATMENT METHOD THEREOF” (Chugai Seiyaku Kabushiki Kaisha, priority 2022, published 2024)
Where two headings read alike, the source gives them in different places.

Key:
Experiment in all cases: Pemetrexed cytotoxicity test upon suppression of expression of MYT1
Assay type in all cases: cell-based
PC-9 = details: Homo sapiens, PC-9 (RB1 wild-type), 7 days
Description: (§1) Thereafter, the plates were shaken to transfect each siRNA at a final concentration of 10 nM.
(§2) The −Log 2 value of fold change of IC50 and the maximum value of Bliss score, which are indexes of the combination effect, were calculated by comparing with the actually obtained cell survival curve, and described in Table 6 (see Non Patent Literature 9).

EKVX = details: Homo sapiens, EKVX (RB1 wild-type), 7 days
Description: as §1, §2

NCI-H2110 = NCI-H2110 (RB1 mutant), 7 days
Description: as §1, §2

LU65 = details: Homo sapiens, LU65 (RB1 mutant), 7 days
Description: as §1, §2

A549 = details: Homo sapiens, A549 (RB1 wild-type), 7 days
Description: as §1, §2

NCI-H1155 = details: Homo sapiens, NCI-H1155 (RB1 mutant), 7 days
Description: as §1, §2

ChaGo-K-1 = details: Homo sapiens, ChaGo-K-1 (RB1 mutant), 7 days
Description: as §1, §2

ABC-1 = details: Homo sapiens, ABC-1 (RB1 wild-type), 7 days
Description: as §1, §2

NCI-H460 = details: Homo sapiens, NCI-H460 (RB1 wild-type), 7 days
Description: as §1, §2

NCI-H322 = NCI-H322 (RB1 wild-type), 7 days
Description: as §1, §2

NCI-H596 = details: Homo sapiens, NCI-H596 (RB1 mutant), 7 days
Description: as §1, §2

HOP-62 = details: Homo sapiens, HOP-62 (RB1 wild-type), 7 days
Description: as §1, §2

NCI-H358 = details: Homo sapiens, NCI-H358 (RB1 wild-type), 7 days
Description: as §1, §2

NCI-H292 = details: Homo sapiens, NCI-H292 (RB1 wild-type), 7 days
Description: as §1, §2

NCI-H441 = details: Homo sapiens, NCI-H441 (RB1 wild-type), 7 days
Description: as §1, §2

NCI-H2122 = details: Homo sapiens, NCI-H2122 (RB1 wild-type), 7 days
Description: as §1, §2

NCI-H1993 = details: Homo sapiens, NCI-H1993 (RB1 wild-type), 7 days
Description: as §1, §2

NCI-H1666 = details: Homo sapiens, NCI-H1666 (RB1 wild-type), 7 days
Description: as §1, §2

[1] = read-out: IC50 of pemetrexed, MYT1 #16, MYT1 siRNA #16 10 nM
[2] = read-out: IC50 of pemetrexed, MYT1 #18, MYT1 siRNA #18 10 nM
[3] = read-out: IC50 of pemetrexed, NT, negative control siRNA 10 nM

Nc1nc2[nH]cc(CCc3ccc(C(=O)N[C@@H](CCC(=O)O)C(=O)O)cc3)c2c(=O)[nH]1 [pemetrexed]
IC50 (PC-9; [1]): 32.9 nM
IC50 (PC-9; [2]): 77.7 nM
IC50 (PC-9; [3]): 145 nM
IC50 (EKVX; [1]): 166 nM
IC50 (EKVX; [2]): 263 nM
IC50 (EKVX; [3]): 404 nM
IC50 (NCI-H2110; [1]): 10.5 nM
IC50 (NCI-H2110; [2]): 41.4 nM
IC50 (NCI-H2110; [3]): 227 nM
IC50 (LU65; Lu-65, read-out: IC50 of pemetrexed, MYT1 #16, MYT1 siRNA #16 10 nM): 134 nM
IC50 (LU65; Lu-65, read-out: IC50 of pemetrexed, MYT1 #18, MYT1 siRNA #18 10 nM): 140 nM
IC50 (LU65; Lu-65, read-out: IC50 of pemetrexed, NT, negative control siRNA 10 nM): 1070 nM
IC50 (A549; [1]): 1530 nM
IC50 (A549; [2]): 1950 nM
IC50 (A549; [3]): 2850 nM
IC50 (NCI-H1155; [1]): 673 nM
IC50 (NCI-H1155; [2]): 1650 nM
IC50 (NCI-H1155; [3]): 9840 nM
IC50 (ChaGo-K-1; [1]): 133 nM
IC50 (ChaGo-K-1; [2]): 192 nM
IC50 (ChaGo-K-1; [3]): 914 nM
IC50 (ABC-1; [1]): 363 nM
IC50 (ABC-1; [2]): 313 nM
IC50 (ABC-1; [3]): 973 nM
IC50 (NCI-H460; [1]): 465 nM
IC50 (NCI-H460; [2]): 563 nM
IC50 (NCI-H460; [3]): 667 nM
IC50 (NCI-H322; [1]): 1030 nM
IC50 (NCI-H322; [2]): 805 nM
IC50 (NCI-H322; [3]): 1600 nM
IC50 (NCI-H596; [1]): 7.01 nM
IC50 (NCI-H596; [2]): 21 nM
IC50 (NCI-H596; [3]): 385 nM
IC50 (HOP-62; [1]): 98.1 nM
IC50 (HOP-62; [2]): 91.9 nM
IC50 (HOP-62; [3]): 175 nM
IC50 (NCI-H358; [1]): 531 nM
IC50 (NCI-H358; [2]): 333 nM
IC50 (NCI-H358; [3]): 986 nM
IC50 (NCI-H292; [1]): 71.1 nM
IC50 (NCI-H292; [2]): 187 nM
IC50 (NCI-H292; [3]): 391 nM
IC50 (NCI-H441; [1]): 95.6 nM
IC50 (NCI-H441; [2]): 865 nM
IC50 (NCI-H441; [3]): 884 nM
IC50 (NCI-H2122; [1]): 13.5 nM
IC50 (NCI-H2122; [2]): 47.2 nM
IC50 (NCI-H2122; [3]): 159 nM
IC50 (NCI-H1993; [1]): 24.6 nM
IC50 (NCI-H1993; [2]): 106 nM
IC50 (NCI-H1993; [3]): 181 nM
IC50 (NCI-H1666; [1]): 473 nM
IC50 (NCI-H1666; [2]): 291 nM
IC50 (NCI-H1666; [3]): 619 nM
